Results taken from patent US5665386A, “Use of essential oils to increase bioavailability of oral pharmaceutical compounds” (priority 1995, dated 1997).
Values joined by “and” are separate entries in the source; they are usually repeats but may differ in a detail not shown here. Identical values can stand only once. Like-named read-outs stand apart in the source and are kept apart here.

Test system: rat cytochrome P450 3A
[1] = Table 2, 0.0001 wt. % component
[2] = Table 2, repeat 0.0001 wt. % (SD in parentheses)

| SMILES | % inhibition of cyclosporine metabolism [1] | % inhibition of cyclosporine metabolism (Table 2, 0.001 wt. % component) | % inhibition of cyclosporine metabolism (Table 2, 0.01 wt. % component) | other results |
| --- | --- | --- | --- | --- |
| CC12CCC(CC1=O)C2(C)C (racemic) [Camphor-(±), 1,7,7-Trimethylbicyclo [2.2.1] heptan-2-one] |  |  |  | % inhibition of cyclosporine metabolism, repeat (microsomes, pH 7.4): 53 (3) % |
| C=CC(C)(O)CCC=C(C)C (racemic) [Linalool-(±), 3,7-Dimethyl-1,6-octadien-3-ol] | 41% | 72.0% | 85% | % inhibition of cyclosporine metabolism, repeat [2]: -7 (9) % and -5 (2) % |
| CCC=CCC1C(=O)CCC1CC(=O)OC (racemic) [Methyl Jasmonate-(±), Methyl-3-oxo-2-(2-pentenyl)-cyclopentane acetate] | -27% | 65% |  |  |
| C=C1C2CCC(C2)C1(C)C (single isomer, unassigned) [Camphene-(+), 2,2-Dimethyl-3-methylenebicyclo[2.2.1]heptane] | -49% | 12.4% |  |  |
| C=C(C)C1CC=C(C)C(O)C1 (single isomer, unassigned) [Carveol-(-), p-Mentha-6,8-dien-2-ol] | 2% | 60% |  |  |
| CC=C(C)C=CC=C(C)C [Allo Ocimene, 2,6-Dimethyl-2,4,6-octatriene] | 6% | 22% |  |  |
| C/C=C/c1ccc(OC)cc1 [Anethole, trans-, 4-Propenylanisole] |  | 53% | 100% |  |
| O=C(/C=C/c1ccccc1)OCc1ccccc1 [Benzyl Cinnamate, Benzyl 3-phenylpropenoic acid] | 7% | -45% |  |  |
| COc1cc(CNC(=O)CCCC/C=C/C(C)C)ccc1O [Capsaicin, trans-8-Methyl-N-vanillyl-6 nonenamide] | 27% | 68% |  |  |
| CC1=CCC2C(C1)C2(C)C (centres unmarked) [Carene-3-(Δ)] | -26% | 34% |  |  |
| Cc1ccc(C(C)C)cc1O [Carvacrol, 5-isoProply-2-methylphenol] | 11% | 93% | 97% |  |
| C=C(C)[C@@H]1CC=C(C)C(=O)C1 [Carvone-(R)-(-), p-Mentha-6,8-dien-2-one] | 27% | 69% | 100% |  |
| C=C(C)[C@H]1CC=C(C)C(=O)C1 [Carvone-(S)-(+), p-Mentha-6,8-dien-2-one] | 30% | 70.5% |  |  |
| C=C1CC/C=C(\C)CC[C@@H]2[C@@H]1CC2(C)C [Caryophyllene, trans-(-), β Caryophyllene] | 26% | 85% |  |  |
| O=C/C=C/c1ccccc1 [Cinnamic Aldehyde, trans-, 3-Phenylpropenaldehyde] |  | 29.0% | 78% |  |
| CC(C)=CCC/C(C)=C/C=O [Citral] | 44% | 54% | 99% |  |
| CC(C)=CCCC(C)CCO (stereo not drawn) [Citronellol-(DL)-(β), 3,7-Dimethyl-6-octen-1-ol] | 41% | 86% | 95% | % inhibition of cyclosporine metabolism, repeat [2]: 35 (4) % |
| C=CCc1ccc(OC)cc1 [Estragole, 4-Allylanisole] | 7% | 69.2% | 100% |  |
| CCOC(=O)/C=C/c1ccccc1 [Ethyl Cinnamate, trans-, Ethyl 3-phenylpropenoic acid] | -13% | -16% |  |  |

| SMILES | % inhibition of cyclosporine metabolism [1] | % inhibition of cyclosporine metabolism (Table 2, 0.001 wt. % component) | % inhibition of cyclosporine metabolism (Table 2, 0.01 wt. % component) | other results |
| --- | --- | --- | --- | --- |
| CCOc1cc(C=O)ccc1O [Ethyl Vanillin, 3-Ethoxy-4-hydroxybenzalehyde] |  |  | 58% |  |
| C=CCc1ccc(O)c(OC)c1 [Eugenol, 4-Allyl-2-methoxyphenol] | 9.8% | 66% | 100% |  |
| CC(C)=CCC/C(C)=C/CC/C(C)=C/CO [Farnesol, trans-, trans-, 3,7,11-Trimethyl-2,6,10-dodecatrien-1-ol] | 49% | 82% |  |  |
| CC1(C)[C@H]2CC[C@](C)(C2)[C@H]1O [Fenchol-(1R)-endo-(+), 1,3,3-Trimethylbicyclo [2.2.1] heptan-2-ol] | 18% | 74% | 100% |  |
| CC1(C)C(=O)[C@]2(C)CC[C@H]1C2 [Fenchone-(1R)-(-), 1,3,3-Trimethylbicyclo [2.2.1] heptan-2-one] | 14% | 38% |  |  |
| CC(=O)OC/C=C(\C)CCC=C(C)C [Geranyl Acetate, trans-3,7-Dimethyl-2,6-octadien-1-yl acetate] |  | 51.5% | 73% |  |
| CC/C=C\CC1=C(C)CCC1=O [Jasmone, cis-, 3-Methyl-2-(2-pentenyl)-2-cyclopenten-1-one] | 16.0% | 68% |  |  |
| CC(=O)N1CCN(c2ccc(OCC3COC(Cn4ccnc4)(c4ccc(Cl)cc4Cl)O3)cc2)CC1 (centres unmarked) [Ketoconazole, reference compound] |  |  |  | % inhibition of cyclosporine metabolism (Table 3, 0.000001%): 8%; % inhibition of cyclosporine metabolism (Table 3, 0.000005%): 20%; % inhibition of cyclosporine metabolism (Table 3, 0.00001%): 42%; % inhibition of cyclosporine metabolism (Table 3, 0.00005%): 100% |
| C=C(C)[C@H]1CC=C(C)CC1 [Limonene-(R)-(+), p-Mentha-1,8-diene] |  | 20% | 84% |  |
| C=C(C)[C@@H]1CC=C(C)CC1 [Limonene-(S)-(-), p-Mentha-1,8-diene] |  | 30% | 82.3% |  |
| C=CC(C)(CCC=C(C)C)OC(C)=O (centres unmarked) [Linalyl Acetate, 3,7-Dimethyl-1,6-octadien-3-yl acetate] |  | 55.8% | 100% |  |
| CC(C)[C@@H]1CC[C@@H](C)CC1=O [Menthone-(-), p-Menthan-3-one] | 14% | 52% |  |  |
| COC(=O)c1ccccc1N [Methyl Anthranilate, Methyl 2-aminobenzoate] | -7% | 23% |  |  |
| C=CC(=C)CCC=C(C)C [Myrcene-β, 7-Methyl-3-methylene-1,6-octadiene] | 0% | 13% |  |  |
| C=C1CC[C@H]2C[C@@H]1C2(C)C [Pinene-(1S)-(-)-β, 6,6-Dimethyl-2-methylenebicyclo[3.1.1]heptane] | -10% | 60% | 88% |  |
| CC(C)=C1CC[C@@H](C)CC1=O [Pulegone-(R)-(+), p-Menth-4(8)-en-3-one] | -17% | 31% |  |  |
| CC1=CCC(O)(C(C)C)CC1 (centres unmarked) [Terpinen-4-ol, p-Menth-1-en-4-ol] | 3.81% | 80% | 100% |  |
| CC1=CC=C(C(C)C)CC1 [Terpinene-α, p-Mentha-1,3-diene] | -6% | 28% |  |  |
| CC1=CCC(C(C)(C)O)CC1 (stereo not drawn) [Terpineol-α, p-Menth-1-en-8-ol] | 13.4% | 86% | 100% |  |
